In patent US20140011930A1, “Bio-Renewable Carboxylic Acid Esters and Mixtures Thereof Useful as Plasticizers” (TEKNOR APEX COMPANY, priority 2012, published 2014):

What was measured:
Assay type in all cases: physicochemical
[1] = Hardness (Shore) of PVC compounds (ASTM D-2240)
[2] = Specific Gravity of PVC compounds (ASTM D-792)
[3] = Dynamic Heat Stability (ASTM D-2538)
[4] = Loop Spew compatibility test (ASTM D-3291)
Procedure: This plasticizer was evaluated in the same formulations as test compounds 1, 2, 3 along with DEHP and Example 1.
PVC compounds were prepared with the plasticizers described in Example 1 and Example 2, and a commercial sample of DEHP, containing standard heat stabilizers, antioxidant and a lubricant. The compounds were evaluated in standard laboratory tests according the following ASTM methods: […]

[5] = Gamma irradiation stability (yellowness index YI)
Description: Additional advantages of the compounds of the invention are their low cytotoxicity and resistance to gamma radiation especially when compared to the industry standard of di-2-ethylhexyl phthalate (DEHP). Gamma radiation stability is important since it allows for the convenient sterilization of articles prepared from PVC compound. The key performance standard is non-yellowing of the PVC compound after exposure to gamma radiation. An example of the improvement in gamma stability is shown below.

[6] = Tensile, 100% modulus, elongation of PVC compounds (ASTM D-638); parameters: 100% Modulus: unit not given here
[7] = Brittle Point (ASTM D-746)
[8] = % Volatile Loss (ASTM D-1203)
[9] = Oven Stability (210° C.) (ASTM D-1203)
[10] = PVC Test Compound 59-67 A Gauge
[11] = PVC Test Compound 59-67 A Gauge, DEHP vs Example 1/ESO series
[12] = PVC Test Compound 80-85 C Gauge
[13] = PVC Test Compound 80-85 C Gauge, DEHP vs Example 1/ESO series
[14] = PVC Test Compound 81-85 A Gauge
[15] = PVC Test Compound-Gamma Irradiation Stability-A
[16] = Gamma Radiation = 35 kGys (3.5 Mrads)
[17] = Gamma Radiation = 35 kGys (3.5 Mrads), oven aging 48 hr. at 50° C.

## CCCCC(CC)COC(=O)c1ccccc1C(=O)OCC(CC)CCCC (stereo not shown) [DEHP, di-(2-ethylhexyl) phthalate]
[1]; [10]
  Hardness Shore A (15 sec delay): 60
  Hardness Shore A (instant): 68
[1]; [11]
  Hardness Shore A (15 sec delay): 56
  Hardness Shore A (instant): 60
[1]; [12]
  Hardness Shore C (10 sec delay): 85
  Hardness Shore C (instant): 93
[1]; [13]
  Hardness Shore C (10 sec delay): 85
  Hardness Shore C (instant): 90
[1]; [14]
  Hardness Shore C (10 sec delay): 83
  Hardness Shore C (instant): 90
[1]; [15]
  Hardness Shore A (15 sec delay): 86
  Hardness Shore A (instant): 91
[2]; [10]
  Specific Gravity: 1.16
[2]; [11]
  Specific Gravity: 1.16
[2]; [12]
  Specific Gravity: 1.28
[2]; [13]
  Specific Gravity: 1.28
[2]; [14]
  Specific Gravity: 1.23
[2]; [15]
  Specific Gravity: 1.24
[3]; [10]
  Dynamic Heat Stability: 72 min
[3]; [11]
  Dynamic Heat Stability: 54
[3]; [12]
  Dynamic Heat Stability: 19 min
[3]; [13]
  Dynamic Heat Stability: 7 min
[3]; [14]
  Dynamic Heat Stability: 40 min
[4]; [10]
  Loop Spew: None
[4]; [11]
  Loop Spew: None
[4]; [12]
  Loop Spew: None
[4]; [13]
  Loop Spew: None
[4]; [14]
  Loop Spew: None
[5]; [16]
  Absolute YI After 35 kGys Gamma: 12.24
  Change in YI from Original After 35 kGys Gamma: 5.46
[5]; [17]
  Absolute YI After 35 kGys Gamma and Oven Aging (48 hr. at 50° C.): 17.58
  Change in YI from Original After 35 kGys Gamma and Oven Aging (48 hr. at 50° C.): 10.80
[5]; before irradiation
  Absolute YI Original: 6.78
[6]; [10]
  100% Modulus: 554
  % Elongation: 439%
  Tensile (psi): 1559 psi
[6]; [11]
  100% Modulus: 518
  % Elongation: 451%
  Tensile (psi): 1564 psi
[6]; [12]
  100% Modulus: 3440
  % Elongation: 281%
  Tensile (psi): 3840 psi
[6]; [13]
  100% Modulus: 3617
  % Elongation: 282%
  Tensile (psi): 4083 psi
[6]; [14]
  100% Modulus: 1490
  % Elongation: 380%
  Tensile (psi): 2875 psi
[7]; [10]
  Brittle Point ° C.: −48.5 °C
[7]; [11]
  Brittle Point ° C.: −50.5 °C
[7]; [12]
  Brittle Point ° C.: −17.0 °C
[7]; [13]
  Brittle Point ° C.: −22 °C
[7]; [14]
  Brittle Point ° C.: −34.5 °C
[8]; [10]
  % Volatile Loss: 3.54%
[8]; [11]
  % Volatile Loss: 4.58%
[8]; [12]
  % Volatile Loss: 1.56%
[8]; [13]
  % Volatile Loss: 1.67%
[8]; [14]
  % Volatile Loss: 2.73%
[9]; [10]
  Oven Stability (210° C.) Decomposition Failure: 50 min
  Oven Stability (210° C.) Initial Color: Clear
  Oven Stability (210° C.) Initial Color Failure: 15 min
[9]; [11]
  Oven Stability (210° C.) Decomposition Failure: 60 min
  Oven Stability (210° C.) Initial Color: Clear
  Oven Stability (210° C.) Initial Color Failure: 15 min
[9]; [12]
  Oven Stability (210° C.) Decomposition Failure: 50 min
  Oven Stability (210° C.) Initial Color: Clear
  Oven Stability (210° C.) Initial Color Failure: 15 min
[9]; [13]
  Oven Stability (210° C.) Decomposition Failure: 50 min
  Oven Stability (210° C.) Initial Color: Clear
  Oven Stability (210° C.) Initial Color Failure: 10 min
[9]; [14]
  Oven Stability (210° C.) Decomposition Failure: 50 min
  Oven Stability (210° C.) Initial Color: Clear
  Oven Stability (210° C.) Initial Color Failure: 15 min
